Experimental data from patent publication US8497240B2 (priority 2006, dated 2013).
Where “and” joins values, the source holds several entries; their conditions need not be identical. Identical values can stand only once. Like-named read-outs stand apart in the source and are kept apart here.

Legend:
human GIP receptor = target: T1, human GIP receptor (Homo sapiens, UniProt P48546); experiment: biochemical; type: binding
T1 construct: expressed in transfected cells; host or cells: HEK293 (HEK-GIPR), membranes
T1 sequence (P48546 22-466): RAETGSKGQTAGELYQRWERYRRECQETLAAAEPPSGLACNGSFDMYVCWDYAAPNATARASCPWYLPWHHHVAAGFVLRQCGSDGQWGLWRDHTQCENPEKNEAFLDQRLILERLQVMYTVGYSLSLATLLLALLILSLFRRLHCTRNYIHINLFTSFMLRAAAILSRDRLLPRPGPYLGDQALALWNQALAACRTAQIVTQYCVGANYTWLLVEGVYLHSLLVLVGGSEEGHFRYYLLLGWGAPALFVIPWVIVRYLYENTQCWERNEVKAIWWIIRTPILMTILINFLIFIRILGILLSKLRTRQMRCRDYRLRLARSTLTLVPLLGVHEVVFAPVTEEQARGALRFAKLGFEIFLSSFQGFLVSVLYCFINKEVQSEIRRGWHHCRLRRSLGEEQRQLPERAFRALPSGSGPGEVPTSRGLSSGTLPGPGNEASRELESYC

[1] = type: in vivo, NIH/Swiss mice; conditions: 30 nmol/kg
Protocol: (§1) In FIG. 3A, bars represent mean±sd, n=6-10. […] Gavage (1.5 g/kg) was given at t=0, Sample was taken at t=30 min. […] In FIG. 3B, points represent mean±sem, n=8-15.
Peptide was injected IP at t=−5 minutes into 4-hour fasted NIH/Swiss female mice. […] In FIG. 17 points represent mean+/−sem. […] Samples were taken at t=60, t=120 and t=180.

[2] = IVGTT duration of action assay (single SC injection before glucose); type: in vivo, rat; conditions: compared with 0601GIP3794 (794), dosed at −120 min
Protocol: To determine a duration of action using the IVGTT assay, the sample was injected SC as a single injection at one time point indicated (e.g., t=−240, −120, −60 or −30) prior to administration of glucose. IV glucose was given at t=0.

[3] = type: in vivo, NIH/Swiss mice; conditions: 80 nmol/kg, AUC240
Protocol: as §1
Points represent mean±sem.

[4] = read-out: (% Inh 10 nm, GIP-LF Assay)
[5] = read-out: GIP RBA (% Inh 10 nM)

| SMILES | inhibition at 0.01 µM (human GIP receptor; [4]) [%] | inhibition at 0.01 µM (human GIP receptor; [5]) [%] | OGTT/GL (%) [1] | Duration In The Rat IVGTT Assay [2] | Basal Gluc. Low. 80 nmol/Kg [3] |
| --- | --- | --- | --- | --- | --- |
| CC[C@H](C)[C@H](NC(=O)[C@H](CO)NC(=O)[C@H](Cc1ccc(O)cc1)NC(=O)[C@H](CC(=O)O)NC(=O)[C@H](CO)NC(=O)[C@@H](NC(=O)[C@H](Cc1ccccc1)NC(=O)[C@@H](NC(=O)CNC(=O)[C@H](CCC(=O)O)NC(=O)[C@@H](C)NC(=O)[C@@H](N)Cc1ccc(O)cc1)[C@@H](C)O)[C@@H](C)CC)C(=O)N[C@@H](C)C(=O)N[C@@H](CCSC)C(=O)N[C@@H](CC(=O)O)C(=O)N[C@@H](CCCCN)C(=O)N[C@H](C(=O)N[C@@H](Cc1c[nH]cn1)C(=O)N[C@@H](CCC(N)=O)C(=O)N[C@@H](CCC(N)=O)C(=O)N[C@@H](CC(=O)O)C(=O)N[C@@H](Cc1ccccc1)C(=O)N[C@H](C(=O)N[C@@H](CC(N)=O)C(=O)N[C@@H](Cc1c[nH]c2ccccc12)C(=O)N[C@@H](CC(C)C)C(=O)N[C@@H](CC(C)C)C(=O)N[C@@H](C)C(=O)N[C@@H](CCC(N)=O)C(=O)N[C@@H](CCCCN)C(=O)N1CCC[C@H]1C(=O)N[C@@H](CCCCN)C(=O)N[C@@H](CCCCN)C(=O)N[C@@H](CC(C)C)C(=O)N[C@@H](CCCCN)C(=O)N1CCC[C@H]1C(=O)N[C@@H](CO)C(N)=O)C(C)C)[C@@H](C)CC [Compound 0601GIP4822] | 95.4 | 95.4 | −23, % | <794@ −120 min |  |
| CC[C@H](C)[C@H](NC(=O)[C@H](CO)NC(=O)[C@H](Cc1ccc(O)cc1)NC(=O)[C@H](CC(=O)O)NC(=O)[C@H](CO)NC(=O)[C@@H](NC(=O)[C@H](Cc1ccccc1)NC(=O)[C@@H](NC(=O)CNC(=O)[C@H](CCC(=O)O)NC(=O)[C@@H](C)NC(=O)[C@@H](N)Cc1ccc(O)cc1)[C@@H](C)O)[C@@H](C)CC)C(=O)N[C@@H](C)C(=O)N[C@@H](CCSC)C(=O)N[C@@H](CC(=O)O)C(=O)N[C@@H](CCCCN)C(=O)N[C@H](C(=O)N[C@@H](Cc1c[nH]cn1)C(=O)N[C@@H](CCC(N)=O)C(=O)N[C@@H](CCC(N)=O)C(=O)N[C@@H](CC(=O)O)C(=O)N[C@@H](Cc1ccccc1)C(=O)N[C@H](C(=O)N[C@@H](CC(N)=O)C(=O)N[C@@H](Cc1c[nH]c2ccccc12)C(=O)N[C@@H](CC(C)C)C(=O)N[C@@H](CC(C)C)C(=O)N[C@@H](C)C(=O)N[C@@H](CCC(N)=O)C(=O)N[C@@H](CCCCN)C(=O)N1CCC[C@H]1C(=O)N[C@@H](CCC(N)=O)C(=O)N[C@@H](CCCCN)C(=O)N[C@H](C(=O)N[C@@H](CCCNC(=N)N)C(=O)N[C@@H](Cc1ccc(O)cc1)C(=O)N[C@@H](CO)C(N)=O)[C@@H](C)CC)C(C)C)[C@@H](C)CC [Compound 0601GIP4853] | 91 |  | −25, % | <794@ −120 min |  |
| CC[C@H](C)[C@H](NC(=O)[C@H](C)NC(=O)[C@H](CCCCN)NC(=O)[C@@H]1CCCN1C(=O)[C@H](CCCCN)NC(=O)[C@H](CCC(N)=O)NC(=O)[C@H](C)NC(=O)[C@H](CC(C)C)NC(=O)[C@H](CC(C)C)NC(=O)[C@H](Cc1c[nH]c2ccccc12)NC(=O)[C@H](CC(N)=O)NC(=O)[C@@H](NC(=O)[C@H](Cc1ccccc1)NC(=O)[C@H](CC(=O)O)NC(=O)[C@H](CCC(N)=O)NC(=O)[C@H](CCC(N)=O)NC(=O)[C@H](Cc1c[nH]cn1)NC(=O)[C@@H](NC(=O)[C@H](CCCCN)NC(=O)[C@H](CC(=O)O)NC(=O)[C@H](CCSC)NC(=O)[C@H](C)NC(=O)[C@@H](NC(=O)[C@H](CO)NC(=O)[C@H](Cc1ccc(O)cc1)NC(=O)[C@H](CC(=O)O)NC(=O)[C@H](CO)NC(=O)[C@@H](NC(=O)[C@H](Cc1ccccc1)NC(=O)[C@@H](NC(=O)CNC(=O)[C@H](CCC(=O)O)NC(=O)[C@@H](C)NC(=O)[C@@H](N)Cc1ccc(O)cc1)[C@@H](C)O)[C@@H](C)CC)[C@@H](C)CC)[C@@H](C)CC)C(C)C)C(=O)N[C@@H](CCCNC(=N)N)C(=O)N[C@@H](Cc1ccc(O)cc1)C(=O)N[C@@H](CO)C(N)=O [Compound 0601GIP4816] | 87.3 | 87.3 | −19%, | <794@ −120 min | −9%, |
| CC[C@H](C)[C@H](NC(=O)[C@H](CO)NC(=O)[C@H](Cc1ccc(O)cc1)NC(=O)[C@H](CC(=O)O)NC(=O)[C@H](CO)NC(=O)[C@@H](NC(=O)[C@H](Cc1ccccc1)NC(=O)[C@@H](NC(=O)CNC(=O)[C@H](CCC(=O)O)NC(=O)[C@@H](C)NC(=O)[C@@H](N)Cc1ccc(O)cc1)[C@@H](C)O)[C@@H](C)CC)C(=O)N[C@@H](C)C(=O)N[C@@H](CCSC)C(=O)N[C@@H](CC(=O)O)C(=O)N[C@@H](CCCCN)C(=O)N[C@H](C(=O)N[C@@H](Cc1c[nH]cn1)C(=O)N[C@@H](CCC(N)=O)C(=O)N[C@@H](CCC(N)=O)C(=O)N[C@@H](CC(=O)O)C(=O)N[C@@H](Cc1ccccc1)C(=O)N[C@H](C(=O)N[C@@H](CC(N)=O)C(=O)N[C@@H](Cc1c[nH]c2ccccc12)C(=O)N[C@@H](CC(C)C)C(=O)N[C@@H](CC(C)C)C(=O)N[C@@H](C)C(=O)N[C@@H](CCC(N)=O)C(=O)N[C@@H](CCCCN)C(=O)N1CCC[C@H]1C(=O)N[C@@H](CCCCN)C(=O)N[C@@H](CO)C(=O)N[C@@H](C)C(=O)N[C@@H](CCCNC(=N)N)C(=O)N1CCC[C@H]1C(=O)N[C@@H](CO)C(N)=O)C(C)C)[C@@H](C)CC [Compound 0601GIP4821] | 93.5 | 93.5 | −28, % | <794@ −120 min | −5%, |
| CC[C@H](C)[C@H](NC(=O)[C@H](CO)NC(=O)[C@H](Cc1ccc(O)cc1)NC(=O)[C@H](CC(=O)O)NC(=O)[C@H](CO)NC(=O)[C@@H](NC(=O)[C@H](Cc1ccccc1)NC(=O)[C@@H](NC(=O)CNC(=O)[C@H](CCC(=O)O)NC(=O)[C@@H](C)NC(=O)[C@@H](N)Cc1ccc(O)cc1)[C@@H](C)O)[C@@H](C)CC)C(=O)N[C@@H](C)C(=O)N[C@@H](CC(C)C)C(=O)N[C@@H](CC(=O)O)C(=O)N[C@@H](CCCCN)C(=O)N[C@H](C(=O)N[C@@H](Cc1c[nH]cn1)C(=O)N[C@@H](CCC(N)=O)C(=O)N[C@@H](CCC(N)=O)C(=O)N[C@@H](CC(=O)O)C(=O)N[C@@H](Cc1ccccc1)C(=O)N[C@H](C(=O)N[C@@H](CC(N)=O)C(=O)N[C@@H](Cc1c[nH]c2ccccc12)C(=O)N[C@@H](CC(C)C)C(=O)N[C@@H](CC(C)C)C(=O)N[C@@H](C)C(=O)N[C@@H](CCC(N)=O)C(=O)N[C@@H](CCCCN)C(=O)N1CCC[C@H]1C(=O)N[C@@H](CCCCN)C(=O)N[C@@H](CCCCN)C(=O)N[C@H](C(=O)N[C@@H](CCCNC(=N)N)C(=O)N[C@@H](Cc1ccc(O)cc1)C(=O)N[C@@H](CO)C(N)=O)[C@@H](C)CC)C(C)C)[C@@H](C)CC [0601GIP4807] | 96.1 | 96.1 | −27, % and −27, 30% | <794 @ −120 min |  |
| CC[C@H](C)[C@H](NC(=O)[C@H](CO)NC(=O)[C@H](Cc1ccc(O)cc1)NC(=O)[C@H](CC(=O)O)NC(=O)[C@H](CO)NC(=O)[C@@H](NC(=O)[C@H](Cc1ccccc1)NC(=O)[C@@H](NC(=O)CNC(=O)[C@H](CCC(=O)O)NC(=O)[C@@H](C)NC(=O)[C@@H](N)Cc1ccc(O)cc1)[C@@H](C)O)[C@@H](C)CC)C(=O)N[C@@H](C)C(=O)N[C@@H](CCSC)C(=O)N[C@@H](CC(=O)O)C(=O)N[C@@H](CCCCN)C(=O)N[C@H](C(=O)N[C@@H](Cc1c[nH]cn1)C(=O)N[C@@H](CCC(N)=O)C(=O)N[C@@H](CCC(N)=O)C(=O)N[C@@H](CC(=O)O)C(=O)N[C@@H](Cc1ccccc1)C(=O)N[C@H](C(=O)N[C@@H](CC(N)=O)C(=O)N[C@@H](Cc1c[nH]c2ccccc12)C(=O)N[C@@H](CC(C)C)C(=O)N[C@@H](CC(C)C)C(=O)N[C@@H](C)C(=O)N[C@@H](CCC(N)=O)C(=O)N[C@@H](CCCCN)C(=O)N1CCC[C@H]1C(=O)N[C@@H](CO)C(=O)N1CCC[C@H]1C(=O)N[C@@H](CCCCN)C(=O)N[C@@H](CCCCN)C(=O)N[C@H](C(=O)N[C@@H](CCCNC(=N)N)C(=O)N[C@@H](Cc1ccc(O)cc1)C(=O)N[C@@H](CO)C(N)=O)[C@@H](C)CC)C(C)C)[C@@H](C)CC [Compound 0601GIP4823] | 94.1 | 94.1 |  | <794@ −120 min | −23%, |
